Blank lines part the entries; values can stand above or below the compound they belong to.
What was measured:
[1] = Half life in RARG2-/-gammac-/- Balb/c mouse at […], iv administered as single dose by LC-MS/MS analysis; assay type: ADME, organism-based; settings: in vivo
[2] = Clearance in RARG2-/-gammac-/- Balb/c mouse at […], iv administered as single dose by LC-MS/MS analysis; assay type: ADME, organism-based; settings: in vivo
[3] = Metabolic stability in mouse liver microsomes assessed as parent compound remaining at 1 uM preincubated for 10 mins followed by NADP addition after 20 mins by LC-MS/MS analysis; assay type: ADME, microsome; settings: read-out: Stability
[4] = Half life in human liver microsomes at 1 uM preincubated for 10 mins followed by NADP addition after 20 mins by LC-MS/MS analysis; assay type: ADME, microsome; settings: microsomes, 20 min, 1 µM
[5] = Growth inhibition of human LAL-CUN-2 cells after 48 hrs by MTS assay; assay type: functional
[6] = Volume of distribution at steady state in RARG2-/-gammac-/- Balb/c mouse at […], iv administered as single dose by LC-MS/MS analysis; assay type: ADME, organism-based; settings: in vivo, read-out: Vdss
[7] = AUC (0 to 24 hrs) in RARG2-/-gammac-/- Balb/c mouse at […], iv administered as single dose by LC-MS/MS analysis; assay type: ADME, organism-based; design: dose 1.9 mg/kg, time < 24 hr, route intravenous; settings: in vivo
[8] = Metabolic stability in human liver microsomes assessed as parent compound remaining at 1 uM preincubated for 10 mins followed by NADP addition after 20 mins by LC-MS/MS analysis; assay type: ADME, microsome; settings: microsomes, 20 min, 1 µM
[9] = Half life in mouse liver microsomes at 1 uM preincubated for 10 mins followed by NADP addition after 20 mins by LC-MS/MS analysis; assay type: ADME, microsome
[10] = target: T1, DNA (cytosine-5)-methyltransferase 1 (Homo sapiens, UniProt P26358); assay: Inhibition of human DNMT1 using polydeoxyinosine polydeoxycytosine DNA as substrate after 15 mins in presence of SAM by TR-FRET assay
[11] = AUC (0 to 24 hrs) in RARG2-/-gammac-/- Balb/c mouse at 5 mg/kg, ip administered as single dose by LC-MS/MS analysis; assay type: ADME, organism-based; design: time < 24 hr, dose 5 mg/kg, route intraperitoneal; settings: in vivo
[12] = target: T2, Histone-lysine N-methyltransferase EHMT1 (Homo sapiens, UniProt Q9H9B1); assay: Inhibition of recombinant human GLP using histone H3 peptide as substrate after 120 mins in presence of [3H]SAM by radiometric assay
T2 sequence (Q9H9B1 whole entry): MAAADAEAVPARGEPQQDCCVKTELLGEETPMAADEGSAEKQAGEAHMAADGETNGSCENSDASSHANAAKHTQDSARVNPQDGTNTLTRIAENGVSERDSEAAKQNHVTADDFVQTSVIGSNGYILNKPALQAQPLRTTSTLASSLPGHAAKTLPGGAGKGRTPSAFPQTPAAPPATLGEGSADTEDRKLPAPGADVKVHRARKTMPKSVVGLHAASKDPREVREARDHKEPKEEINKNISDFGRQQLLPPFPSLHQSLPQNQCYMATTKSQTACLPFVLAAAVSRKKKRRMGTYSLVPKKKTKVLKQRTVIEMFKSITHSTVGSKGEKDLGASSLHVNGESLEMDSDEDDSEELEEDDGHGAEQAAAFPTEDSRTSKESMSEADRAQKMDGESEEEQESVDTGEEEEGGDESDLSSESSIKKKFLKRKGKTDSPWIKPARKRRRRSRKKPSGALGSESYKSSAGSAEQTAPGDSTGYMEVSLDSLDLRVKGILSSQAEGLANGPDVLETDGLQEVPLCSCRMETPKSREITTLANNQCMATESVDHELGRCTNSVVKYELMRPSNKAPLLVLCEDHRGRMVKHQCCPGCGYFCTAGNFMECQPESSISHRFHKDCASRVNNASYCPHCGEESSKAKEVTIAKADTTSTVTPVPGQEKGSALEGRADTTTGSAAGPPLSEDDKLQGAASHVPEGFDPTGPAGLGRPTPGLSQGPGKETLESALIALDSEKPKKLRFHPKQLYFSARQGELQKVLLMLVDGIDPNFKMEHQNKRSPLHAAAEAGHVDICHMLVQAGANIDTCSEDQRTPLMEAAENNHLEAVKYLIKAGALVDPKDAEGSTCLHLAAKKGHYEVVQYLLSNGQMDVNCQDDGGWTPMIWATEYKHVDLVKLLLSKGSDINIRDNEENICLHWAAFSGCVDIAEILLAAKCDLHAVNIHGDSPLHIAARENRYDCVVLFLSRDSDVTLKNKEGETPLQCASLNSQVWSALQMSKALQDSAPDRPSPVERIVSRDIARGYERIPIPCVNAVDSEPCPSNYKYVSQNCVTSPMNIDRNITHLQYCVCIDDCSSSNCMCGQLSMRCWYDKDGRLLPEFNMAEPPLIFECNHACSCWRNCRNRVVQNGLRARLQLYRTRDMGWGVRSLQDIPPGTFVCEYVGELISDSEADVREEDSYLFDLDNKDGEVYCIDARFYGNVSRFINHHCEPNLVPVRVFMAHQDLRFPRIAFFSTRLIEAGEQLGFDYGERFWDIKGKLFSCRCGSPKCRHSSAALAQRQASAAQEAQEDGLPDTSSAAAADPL

[13] = target: T3, Histone-lysine N-methyltransferase EHMT2 (Homo sapiens, UniProt Q96KQ7); assay: Competitive inhibition of human G9a using 40 to 2560 nM biotinylated-H3K9 peptide as substrate after 1 hr in presence of SAM by TR-FRET assay
T3 sequence (Q96KQ7 whole entry): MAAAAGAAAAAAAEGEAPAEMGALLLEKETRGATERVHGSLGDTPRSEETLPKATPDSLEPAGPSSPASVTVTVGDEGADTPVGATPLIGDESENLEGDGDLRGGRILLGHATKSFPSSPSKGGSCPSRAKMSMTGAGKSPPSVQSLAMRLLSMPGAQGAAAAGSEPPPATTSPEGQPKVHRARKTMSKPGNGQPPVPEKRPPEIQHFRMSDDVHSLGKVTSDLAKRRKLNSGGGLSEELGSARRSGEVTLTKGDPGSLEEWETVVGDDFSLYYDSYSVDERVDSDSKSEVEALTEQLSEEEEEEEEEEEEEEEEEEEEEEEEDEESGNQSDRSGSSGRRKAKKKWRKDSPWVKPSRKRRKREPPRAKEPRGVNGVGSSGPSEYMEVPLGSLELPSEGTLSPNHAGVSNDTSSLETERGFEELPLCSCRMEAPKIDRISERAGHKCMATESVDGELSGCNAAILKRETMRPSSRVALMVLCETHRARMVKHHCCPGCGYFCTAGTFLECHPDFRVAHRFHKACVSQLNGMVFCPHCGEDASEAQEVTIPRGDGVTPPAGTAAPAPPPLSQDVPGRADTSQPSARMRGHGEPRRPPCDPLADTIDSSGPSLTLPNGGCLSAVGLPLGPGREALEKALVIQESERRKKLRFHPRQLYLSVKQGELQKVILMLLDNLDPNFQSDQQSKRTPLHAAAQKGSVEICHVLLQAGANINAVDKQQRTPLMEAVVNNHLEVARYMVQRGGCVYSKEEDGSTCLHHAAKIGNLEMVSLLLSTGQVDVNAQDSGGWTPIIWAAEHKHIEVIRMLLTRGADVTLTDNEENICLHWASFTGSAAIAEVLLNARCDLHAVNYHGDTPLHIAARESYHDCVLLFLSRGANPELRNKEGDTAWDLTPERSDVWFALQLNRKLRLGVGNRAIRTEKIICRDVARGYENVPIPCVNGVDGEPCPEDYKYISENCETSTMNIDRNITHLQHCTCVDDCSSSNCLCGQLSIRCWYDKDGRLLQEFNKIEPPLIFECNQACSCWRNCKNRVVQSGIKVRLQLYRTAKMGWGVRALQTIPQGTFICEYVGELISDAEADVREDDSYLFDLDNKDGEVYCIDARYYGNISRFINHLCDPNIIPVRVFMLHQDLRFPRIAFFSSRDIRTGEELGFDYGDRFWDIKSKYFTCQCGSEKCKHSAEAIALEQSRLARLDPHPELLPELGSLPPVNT

[14] = Growth inhibition of human CEMO1 cells after 48 hrs by MTS assay; assay type: functional
[15] = target: T3, Histone-lysine N-methyltransferase EHMT2; assay: Inhibition of human G9a using biotinylated-H3K9 peptide as substrate after 1 hr in presence of SAM by TR-FRET assay
THLE-2 = assay: Growth inhibition of human THLE2 cells after 72 hrs by MTS assay; assay type: cell-based; settings: thle-2, 72 h
[16] = target: T3, Histone-lysine N-methyltransferase EHMT2; assay: Non-competitive inhibition of human G9a using biotinylated-H3K9 peptide as substrate after 1 hr in presence of 2 to 640 uM SAM by TR-FRET assay
OCI-Ly3 = assay: Growth inhibition of human OCI-LY3 cells at 1 uM after 48 hrs by MTS assay relative to control; assay type: functional; settings: OCI-Ly3, 48 h, read-out: GI
OCI-Ly10 = assay: Growth inhibition of human OCI-LY10 cells at 1 uM after 48 hrs by MTS assay relative to control; assay type: functional; settings: OCI-Ly10, 48 h, read-out: GI
[17] = target: T1, DNA (cytosine-5)-methyltransferase 1; assay: Competitive inhibition of human DNMT1 using 1 to 100 ug/ml polydeoxyinosine polydeoxycytosine DNA as substrate after 15 mins in presence of SAM by TR-FRET assay
MV4-11 = assay: Growth inhibition of human MV4-11 cells after 48 hrs by MTS assay; assay type: functional; settings: MV4-11, 48 h
[18] = target: T1, DNA (cytosine-5)-methyltransferase 1; assay: Non-competitive inhibition of human DNMT1 using polydeoxyinosine polydeoxycytosine DNA as substrate after 15 mins in presence of 1 to 20 uM SAM by TR-FRET assay

T1 sequence (P26358 whole entry): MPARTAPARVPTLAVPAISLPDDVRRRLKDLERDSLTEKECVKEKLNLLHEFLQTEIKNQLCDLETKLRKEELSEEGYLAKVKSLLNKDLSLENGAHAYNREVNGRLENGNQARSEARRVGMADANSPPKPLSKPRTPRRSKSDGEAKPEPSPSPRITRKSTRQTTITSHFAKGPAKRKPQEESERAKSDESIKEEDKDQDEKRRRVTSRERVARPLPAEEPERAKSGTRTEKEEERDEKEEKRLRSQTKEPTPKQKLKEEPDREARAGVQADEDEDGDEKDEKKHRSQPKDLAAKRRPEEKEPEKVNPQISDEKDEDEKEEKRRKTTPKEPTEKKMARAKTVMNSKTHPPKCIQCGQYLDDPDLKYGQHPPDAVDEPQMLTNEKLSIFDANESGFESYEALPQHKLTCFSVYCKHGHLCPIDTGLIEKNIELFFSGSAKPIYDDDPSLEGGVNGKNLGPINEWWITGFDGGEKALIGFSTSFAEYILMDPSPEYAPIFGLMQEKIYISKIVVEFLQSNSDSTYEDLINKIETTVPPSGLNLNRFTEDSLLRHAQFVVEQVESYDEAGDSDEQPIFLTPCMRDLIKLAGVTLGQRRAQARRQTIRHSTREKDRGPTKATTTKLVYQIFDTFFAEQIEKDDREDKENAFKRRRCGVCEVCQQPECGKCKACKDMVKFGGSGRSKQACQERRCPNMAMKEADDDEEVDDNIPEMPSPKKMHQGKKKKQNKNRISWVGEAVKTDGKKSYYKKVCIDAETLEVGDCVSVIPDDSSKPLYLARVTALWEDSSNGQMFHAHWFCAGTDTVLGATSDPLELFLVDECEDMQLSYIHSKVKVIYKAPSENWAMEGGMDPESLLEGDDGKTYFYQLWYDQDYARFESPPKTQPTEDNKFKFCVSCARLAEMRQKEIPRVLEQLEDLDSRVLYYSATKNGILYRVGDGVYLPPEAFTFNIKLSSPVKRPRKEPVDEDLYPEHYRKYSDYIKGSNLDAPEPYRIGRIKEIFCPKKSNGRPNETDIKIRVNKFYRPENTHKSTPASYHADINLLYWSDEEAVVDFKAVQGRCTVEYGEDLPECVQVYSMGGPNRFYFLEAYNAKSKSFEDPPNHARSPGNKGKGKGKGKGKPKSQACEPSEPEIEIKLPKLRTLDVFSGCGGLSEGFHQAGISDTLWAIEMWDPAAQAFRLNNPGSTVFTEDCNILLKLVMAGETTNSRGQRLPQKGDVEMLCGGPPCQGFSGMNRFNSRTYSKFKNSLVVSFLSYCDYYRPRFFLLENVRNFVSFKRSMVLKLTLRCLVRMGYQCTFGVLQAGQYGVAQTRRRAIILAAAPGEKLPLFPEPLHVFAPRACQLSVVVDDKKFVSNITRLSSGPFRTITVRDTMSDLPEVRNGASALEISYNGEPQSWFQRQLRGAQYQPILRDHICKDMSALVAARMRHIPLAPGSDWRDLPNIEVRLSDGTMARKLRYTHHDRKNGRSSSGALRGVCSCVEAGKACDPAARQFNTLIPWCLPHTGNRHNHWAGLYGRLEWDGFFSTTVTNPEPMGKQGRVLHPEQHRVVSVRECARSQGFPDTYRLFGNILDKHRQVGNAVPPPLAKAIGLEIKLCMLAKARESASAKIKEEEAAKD

half-life [1]: 792 min | clearance [2]: 98.3 mL/min/kg | remaining at 20 min, 1 µM [3]: 16.9% | t1/2 [4]: 1.6 h | Vd [6]: 88.5 L/kg | AUC(0-t) at 24 h [7]: 0.505 µM·h | Stability [8]: 67.1% | half-life at 1 µM [9]: 12 min
SMILES: CCc1ccc(-c2cc(NC3CCN(C)CC3)c3cc(OC)c(OCCCN4CCCC4)cc3n2)o1
GI50 [5]: 577 nM

IC50 [10]: > 50000 nM | AUC(0-t) at 24 h [11]: 2.31 µM·h
SMILES: COc1cc2c(NC3CCN(C(C)C)CC3)nc(N3CCC(F)(F)CC3)nc2cc1OCCCN1CCCC1

SMILES: COc1cc2c(NC3CCN(C(C)C)CC3)cc(C3CCCCC3)nc2cc1OCCCN1CCCC1
IC50 [12]: 180 nM | IC50 [10]: 619 nM | IC50 [13]: 0.7 to 29 nM | GI50 [14]: > 10 µM | IC50 [15]: 0.7 nM | LC50 (THLE-2): 83.8 µM | IC50 [16]: 0.5 to 2 nM | inhibition of growth at 1 µM (OCI-Ly3): 0% | inhibition of growth at 1 µM (OCI-Ly10): 0% | IC50 [17]: 1.4 to 10 µM | GI50 (MV4-11): > 10 µM | IC50 [18]: 1400 to 2400 nM

From ChEMBL document CHEMBL4130634, “Discovery of Reversible DNA Methyltransferase and Lysine Methyltransferase G9a Inhibitors with Antitumoral in Vivo Efficacy” (J Med Chem, 2018)
